Test results reported in US6737383B1, “Herbicidal oxadiazolidines” (priority 1999, dated 2004).

Assays:
[1] = system: velvetleaf; test: Test B pre/postemergence velvetleaf; type: in vivo, Abutilon theophrasti; conditions: for Velvetleaf plant response rating: scale of 0 to 10 where 0 is no effect and 10 is complete control
Summary of the method: (§1)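 Test chemicals in a non-phytotoxic solvent mixture with surfactant were sprayed preemergence onto planted seeds and postemergence onto plants 2 to 18 cm tall (1- to 4-leaf stage). After twelve to sixteen days in a greenhouse, injury was visually rated against untreated controls from 0 (no effect) to 10 (complete control).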

[2] = system: rape; test: Test B pre/postemergence rape; type: in vivo, Brassica napus; conditions: for Rape plant response rating: scale of 0 to 10 where 0 is no effect and 10 is complete control
Summary of the method: as §1

[3] = system: blackgrass; test: Test B pre/postemergence blackgrass; type: in vivo, Alopecurus myosuroides
Summary of the method: as §1

[4] = system: surinam grass; test: Test B pre/postemergence surinam grass; type: in vivo, Brachiaria decumbens
Summary of the method: as §1

[5] = system: giant foxtail; test: Test B pre/postemergence giant foxtail; type: in vivo, Setaria faberii; conditions: for Giant foxtail plant response rating: scale of 0 to 10 where 0 is no effect and 10 is complete control
Summary of the method: as §1

[6] = system: soybean; test: Test B pre/postemergence soybean; type: in vivo, Glycine max; conditions: for Soybean plant response rating: scale of 0 to 10 where 0 is no effect and 10 is complete control
Summary of the method: as §1

[7] = system: cocklebur; test: Test B pre/postemergence cocklebur; type: in vivo, Xanthium strumarium; conditions: for Cocklebur plant response rating: scale of 0 to 10 where 0 is no effect and 10 is complete control
Summary of the method: as §1

[8] = system: bedstraw; test: Test B pre/postemergence bedstraw; type: in vivo, Galium aparine
Summary of the method: as §1

[9] = system: crabgrass; test: Test B pre/postemergence crabgrass; type: in vivo, Digitaria sanguinalis; conditions: for Crabgrass plant response rating: scale of 0 to 10 where 0 is no effect and 10 is complete control
Summary of the method: as §1

[10] = system: morningglory; test: Test B pre/postemergence morningglory; type: in vivo, Ipomoea hederacea; conditions: for Morningglory plant response rating: scale of 0 to 10 where 0 is no effect and 10 is complete control
Summary of the method: as §1

[11] = system: smallflower flatsedge; test: Test B flood test smallflower flatsedge; type: in vivo, Cyperus difformis
Summary of the method: (§2)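 Flood test on plants grown to the 2-leaf stage; treated plants kept in greenhouse twelve to sixteen days, then visually rated against controls on a 0 (no effect) to 10 (complete control) scale.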

[12] = system: bamyardgrass; test: Test B flood test barnyardgrass; type: in vivo, Echinochloa crus-galli
Summary of the method: as §2

[13] = system: pigweed; test: Test B pre/postemergence pigweed; type: in vivo, Amaranthus retroflexus; conditions: for Redroot pigweed plant response rating: scale of 0 to 10 where 0 is no effect and 10 is complete control
Summary of the method: as §1

[14] = system: rice; test: Test B flood test rice; type: in vivo, Oryza sativa
Summary of the method: as §2

[15] = system: wild oat; test: Test B pre/postemergence wild oat; type: in vivo, Avena fatua; conditions: for Wild oats plant response rating: scale of 0 to 10 where 0 is no effect and 10 is complete control
Summary of the method: as §1

[16] = system: corn; test: Test B pre/postemergence corn; type: in vivo, Zea mays; conditions: for Corn plant response rating: scale of 0 to 10 where 0 is no effect and 10 is complete control
Summary of the method: as §1

[17] = system: sugar beet; test: Test B pre/postemergence sugar beet; type: in vivo, Beta vulgaris; conditions: for Sugarbeets plant response rating: scale of 0 to 10 where 0 is no effect and 10 is complete control
Summary of the method: as §1

[18] = system: purple nutsedge; test: Test B pre/postemergence purple nutsedge; type: in vivo, Cyperus rotundus; conditions: for Nutsedge plant response rating: scale of 0 to 10 where 0 is no effect and 10 is complete control
Summary of the method: as §1

[19] = system: duck salad; test: Test B flood test duck salad; type: in vivo, Heteranthera limosa
Summary of the method: as §2

[20] = system: wheat; test: Test B pre/postemergence wheat; type: in vivo, Triticum aestivum; conditions: for Wheat plant response rating: scale of 0 to 10 where 0 is no effect and 10 is complete control
Summary of the method: as §1

[21] = Postemergence, Rate 125 g/ha, scale 0 to 10, 0 is no effect, 10 is complete control
[22] = Preemergence, Rate 62 g/ha, scale 0 to 10 (0 no effect, 10 complete control)
[23] = Rate 500 g/ha, Postemergence, scale 0 to 10, 0 no effect, 10 complete control
[24] = Preemergence, Rate 250 g/ha, scale of 0 to 10 where 0 is no effect and 10 is complete control
[25] = Preemergence, Rate 500 g/ha, scale of 0 to 10 where 0 is no effect and 10 is complete control
[26] = Rate 62 g/ha, Postemergence, scale of 0 to 10 where 0 is no effect and 10 is complete control
[27] = Rate 250 g/ha, Postemergence, scale of 0 to 10 where 0 is no effect and 10 is complete control
[28] = Postemergence (flood test), Rate 125 g/ha, scale 0 to 10, 0 is no effect, 10 is complete control
[29] = Rate 62 g/ha, Postemergence (flood test species), scale of 0 to 10 where 0 is no effect and 10 is complete control
[30] = Rate 500 g/ha, listed under Postemergence (flood test species), scale 0 to 10, 0 no effect, 10 complete control

## Cc1c(-n2c(=O)on(C(=O)N(c3ccccc3)C(C)C)c2=O)ccc2ccccc12 [Compound 344]
[1]; [21]
  Plant response rating, Velvetleaf: 0
[1]; [22]
  Plant response rating, Velvetleaf: 0
[1]; Preemergence, Rate 125 g/ha
  Velvetleaf plant response rating (0 to 10 scale): 0
[1]; Preemergence, Rate 250 g/ha
  Velvetleaf plant response rating: 0
[1]; Preemergence, Rate 500 g/ha
  Velvetleaf plant response rating: 0
[1]; Rate 62 g/ha, Postemergence
  Velvetleaf plant response rating: 0
[1]; [23]
  Plant response rating, Velvetleaf: 0
[2]; [21]
  Plant response rating, Rape: 0
[2]; [22]
  Plant response rating, Rape: 0
[2]; Preemergence, Rate 125 g/ha
  Rape plant response rating (0 to 10 scale): 0
[2]; Preemergence, Rate 250 g/ha
  Rape plant response rating: 0
[2]; Rate 62 g/ha, Postemergence
  Rape plant response rating: 0
[2]; [23]
  Plant response rating, Rape: 0
[3]; [21]
  Plant response rating, Blackgrass: 0
[3]; [22]
  Plant response rating, Blackgrass: 0
[3]; Preemergence, Rate 125 g/ha
  Blackgrass plant response rating (0 to 10 scale): 0
[3]; [24]
  Blackgrass plant response rating: 0
[3]; [25]
  Blackgrass plant response rating: 0
[3]; [26]
  Blackgrass plant response rating: 0
[3]; [27]
  Plant response rating, Blackgrass: 0
[3]; [23]
  Plant response rating, Blackgrass: 0
[4]; [21]
  Plant response rating, B. signalgrass: 0
[4]; [22]
  Plant response rating, B. signalgrass: 0
[4]; Preemergence, Rate 125 g/ha
  B. signalgrass plant response rating (0 to 10 scale, 0 is no effect, 10 is complete control): 0
[4]; [24]
  B. signalgrass plant response rating: 0
[4]; [25]
  B. signalgrass plant response rating: 0
[4]; [26]
  B. signalgrass plant response rating: 0
[4]; [27]
  Plant response rating, B. signalgrass: 0
[4]; [23]
  Plant response rating, B. signalgrass: 0
[5]; [21]
  Plant response rating, Giant foxtail: 0
[5]; [22]
  Plant response rating, Giant foxtail: 0
[5]; Preemergence, Rate 125 g/ha
  Giant foxtail plant response rating (0 to 10 scale): 2
[5]; Preemergence, Rate 250 g/ha
  Giant foxtail plant response rating: 3
[5]; Preemergence, Rate 500 g/ha
  Giant foxtail plant response rating: 8
[5]; Rate 62 g/ha, Postemergence
  Giant foxtail plant response rating: 0
[5]; [23]
  Plant response rating, Giant foxtail: 0
[6]; [21]
  Plant response rating, Soybean: 2
[6]; [22]
  Plant response rating, Soybean: 0
[6]; Preemergence, Rate 125 g/ha
  Soybean plant response rating (0 to 10 scale): 0
[6]; Preemergence, Rate 250 g/ha
  Soybean plant response rating: 0
[6]; Preemergence, Rate 500 g/ha
  Soybean plant response rating: 0
[6]; Rate 62 g/ha, Postemergence
  Soybean plant response rating: 2
[6]; [23]
  Plant response rating, Soybean: 2
[7]; [21]
  Plant response rating, Cocklebur: 0
[7]; [22]
  Plant response rating, Cocklebur: 0
[7]; Preemergence, Rate 125 g/ha
  Cocklebur plant response rating (0 to 10 scale): 0
[7]; Preemergence, Rate 250 g/ha
  Cocklebur plant response rating: 0
[7]; Preemergence, Rate 500 g/ha
  Cocklebur plant response rating: 0
[7]; Rate 62 g/ha, Postemergence
  Cocklebur plant response rating: 0
[7]; [23]
  Plant response rating, Cocklebur: 0
[8]; [21]
  Plant response rating, Bedstraw: 0
[8]; [22]
  Plant response rating, Bedstraw: 0
[8]; Preemergence, Rate 125 g/ha
  Bedstraw plant response rating (0 to 10 scale): 0
[8]; [26]
  Bedstraw plant response rating: 0
[8]; [27]
  Plant response rating, Bedstraw: 0
[8]; [23]
  Plant response rating, Bedstraw: 0
[9]; [21]
  Plant response rating, Crabgrass: 0
[9]; [22]
  Plant response rating, Crabgrass: 0
[9]; Preemergence, Rate 125 g/ha
  Crabgrass plant response rating (0 to 10 scale): 0
[9]; Preemergence, Rate 250 g/ha
  Crabgrass plant response rating: 0
[9]; Preemergence, Rate 500 g/ha
  Crabgrass plant response rating: 1
[9]; Rate 62 g/ha, Postemergence
  Crabgrass plant response rating: 0
[9]; [23]
  Plant response rating, Crabgrass: 0
[10]; [21]
  Plant response rating, Morningglory: 0
[10]; [22]
  Plant response rating, Morningglory: 0
[10]; Preemergence, Rate 125 g/ha
  Morningglory plant response rating (0 to 10 scale): 0
[10]; Preemergence, Rate 250 g/ha
  Morningglory plant response rating: 0
[10]; Preemergence, Rate 500 g/ha
  Morningglory plant response rating: 0
[10]; Rate 62 g/ha, Postemergence
  Morningglory plant response rating: 0
[10]; [23]
  Plant response rating, Morningglory: 0
[11]; [28]
  Plant response rating, S. Flatsedge: 0
[11]; [29]
  S. Flatsedge plant response rating: 0
[11]; [30]
  Plant response rating, S. Flatsedge: 0
[12]; [28]
  Plant response rating, Barnyardgrass: 0
[12]; [29]
  Barnyardgrass plant response rating: 0
[12]; Rate 250 g/ha, Postemergence (flood test species), scale of 0 to 10 where 0 is no effect and 10 is complete control
  Plant response rating, Barnyardgrass: 0
[12]; [30]
  Plant response rating, Barnyardgrass: 0
[13]; [21]
  Plant response rating, Redroot pigweed: 0
[13]; [22]
  Plant response rating, Redroot pigweed: 0
[13]; Preemergence, Rate 125 g/ha
  Redroot pigweed plant response rating (0 to 10 scale): 0
[13]; Preemergence, Rate 250 g/ha
  Redroot pigweed plant response rating: 0
[13]; Preemergence, Rate 500 g/ha
  Redroot pigweed plant response rating: 0
[13]; Rate 62 g/ha, Postemergence
  Redroot pigweed plant response rating: 0
[13]; [23]
  Plant response rating, Redroot pigweed: 2
[14]; [28]
  Plant response rating, Rice: 0
[14]; [29]
  Rice plant response rating: 0
[14]; [30]
  Plant response rating, Rice: 0
[15]; [21]
  Plant response rating, Wild oats: 0
[15]; [22]
  Plant response rating, Wild oats: 0
[15]; Preemergence, Rate 125 g/ha
  Wild oats plant response rating (0 to 10 scale): 0
[15]; Preemergence, Rate 250 g/ha
  Wild oats plant response rating: 0
[15]; Preemergence, Rate 500 g/ha
  Wild oats plant response rating: 0
[15]; Rate 62 g/ha, Postemergence
  Wild oats plant response rating: 0
[15]; [23]
  Plant response rating, Wild oats: 0
[16]; [21]
  Plant response rating, Corn: 0
[16]; [22]
  Plant response rating, Corn: 0
[16]; Preemergence, Rate 125 g/ha
  Corn plant response rating (0 to 10 scale): 0
[16]; Preemergence, Rate 250 g/ha
  Corn plant response rating: 0
[16]; Preemergence, Rate 500 g/ha
  Corn plant response rating: 0
[16]; Rate 62 g/ha, Postemergence
  Corn plant response rating: 0
[16]; [23]
  Plant response rating, Corn: 0
[17]; [21]
  Plant response rating, Sugarbeets: 0
[17]; [22]
  Plant response rating, Sugarbeets: 0
[17]; Preemergence, Rate 125 g/ha
  Sugarbeets plant response rating (0 to 10 scale): 0
[17]; Preemergence, Rate 250 g/ha
  Sugarbeets plant response rating: 0
[17]; Preemergence, Rate 500 g/ha
  Sugarbeets plant response rating: 0
[17]; Rate 62 g/ha, Postemergence
  Sugarbeets plant response rating: 0
[17]; [23]
  Plant response rating, Sugarbeets: 0
[18]; [21]
  Plant response rating, Nutsedge: 0
[18]; [22]
  Plant response rating, Nutsedge: 0
[18]; Preemergence, Rate 125 g/ha
  Nutsedge plant response rating (0 to 10 scale): 0
[18]; Preemergence, Rate 250 g/ha
  Nutsedge plant response rating: 0
[18]; Preemergence, Rate 500 g/ha
  Nutsedge plant response rating: 0
[18]; Rate 62 g/ha, Postemergence
  Nutsedge plant response rating: 0
[18]; [23]
  Plant response rating, Nutsedge: 0
[19]; [28]
  Plant response rating, Ducksalad: 0
[19]; [29]
  Ducksalad plant response rating: 0
[19]; [30]
  Plant response rating, Ducksalad: 0
[20]; [21]
  Plant response rating, Wheat: 0
[20]; [22]
  Plant response rating, Wheat: 0
[20]; Preemergence, Rate 125 g/ha
  Wheat plant response rating (0 to 10 scale): 0
[20]; Preemergence, Rate 250 g/ha
  Wheat plant response rating: 0
[20]; Preemergence, Rate 500 g/ha
  Wheat plant response rating: 0
[20]; Rate 62 g/ha, Postemergence
  Wheat plant response rating: 0
[20]; [23]
  Plant response rating, Wheat: 0
